Data from patent US4761398A, “Method of inducing birds to molt” (Embrex, Inc., priority 1986, dated 1988).

Experiments:
[1] = system: single combed White Leghorn hens; assay: Hen-day egg production; assay type: in vivo
Description: (§1) During the experiment, two birds were assigned to each cage (12"×18"). The hens were maintained in their cages for two weeks prior to the molt. They received a 17 hour light: 7 hour dark photoperiod throughout this phase of the experiment. During this time, the following parameters were measured:(a) body weight (weekly); (b) feed consumption (all hens received a common layer ration, and the feed consumed during this two week period was measured); (C) production records (daily); and (d), total egg weight, egg shell weight, and egg specific gravity (measured on three consecutive days each week). Serum samples were taken once, from 10 randomly selected hens from each treatment group, and saved for future study.
(§2) After the two week pre-molt adjustment period, the hens were randomly assigned to each of eight different groups. These treatment groups were as follows: (1) control, (2) forced molt, (3) chemical molt-injected, (4) vehicle control-injected, (5) chemical molt-microcapsules A, (6) vehicle control-microcapsules A, (7) chemical molt-microcapsules B, and (8) vehicle control-microcapsules B.
The hens then received a seven day pre-molt treatment of a 24 hour light, zero hour dark photoperiod. On day 14 of the experiment the photoperiod was then reduced to natural day length for all treatments. Feed was made available ad libitum for all groups except the forced molt group. The forced molt group was deprived of food, but not of water, until a 30% body weight loss occurred (10 days of fasting).
(§3) [D-Trp^6 ]LHRH was used as the LHRH receptor ligand for the chemical molt groups. The "chemical molt-injected" group received intramuscular (breast) injections of 25 micrograms/day of [D-Trp^6 ]LHRH for 10 consecutive days beginning on day 14. Alternate pectoral (breast) areas were injected each day. The "chemical molt-microcapsule" groups received a single intramuscular (breast) injection of microencapsulated [D-Trp^6 ]LHRH on day zero. This preparation of microcapsules provided a controlled release of 25 micrograms [D-Trp^6 ]LHRH per day for 15 consecutive days.
(§4) On day 14, the microcapsule injected groups received intramuscular injections of lactide/glycolide copolymer microcapsules which had [D-Trp^6 ]LHRH incorporated therein. The ligand-containing microcapsules administered the "Microcapsules A" group were prepared and supplied by Debiopharm (Lausanne, Switzerland). These microcapsules were prepared by a phase-separation process to produce a free-flowing powder of spherical particles consisting of [D-Trp^6 ]LHRH (2% wt/wt) distributed within a polymeric matrix of 53:47(mol %) poly(DL-lactide-co-glycolide) (98% wt/wt) with an inherent viscosity of 0.7 dl/g. The microcapsules were 50 micrometers or less in diameter. […] Photomicrographs of similar microcapsules are presented in T. W. Redding, et al., Proc. Natl. Acad. Sci. U.S.A., 81, 5845 (Sept. 1984).
Microcapsules were suspended in disposable syringes in vehicle containing 2% carboxymethyl cellulose and 1% "TWEEN 20" in water. After thoroughly mixing the suspension, aliquots calculated to have released a dose of 25 micrograms/day for 15 consecutive days were injected into the breast muscle of the hens. We weighed the microcapsules directly into disposable 3 ml syringes. The plunger of a plugged syringe containing microcapsules (without vehicle) was pulled back to the 1.5-2 cc mark. The hub of the syringe was then placed against a vortex mixer and the syringe vortexed rapidly for about 20 seconds, or until most of the clumps of microbeads were broken and distributed along the barrel of the syringe. An 18 gauge needle was then attached and 0.7 to 1.0 ml of […] injection vehicle was drawn into the syringe. With the needle in an upward position, the syringe was again placed against a vortex mixer and vortexed rapidly for 20 seconds, or until a suspension of microbeads was formed in the vehicle. […]

[2] = system: single combed White Leghorn hens; assay: Egg parameters (specific gravity, total egg weight, shell weight); assay type: in vivo
Description: as §1, §2, §3, §4
The remaining hens were maintained for a three month production period, during which the following parameters were measured: a. body weight (weekly for the first month and then twice a month); b. feed consumption (measured weekly); c. egg production (measured daily); and d. egg weight, shell weight and specific gravity (measured for three consecutive days each week for the first month, and then three consecutive days every two weeks).

LHRH receptor = target: T1, LHRH receptor (Homo sapiens, UniProt P30968); conditions: described in U.S. Pat. No. 4,010,125; cited from earlier work
T1 sequence (P30968 1-328): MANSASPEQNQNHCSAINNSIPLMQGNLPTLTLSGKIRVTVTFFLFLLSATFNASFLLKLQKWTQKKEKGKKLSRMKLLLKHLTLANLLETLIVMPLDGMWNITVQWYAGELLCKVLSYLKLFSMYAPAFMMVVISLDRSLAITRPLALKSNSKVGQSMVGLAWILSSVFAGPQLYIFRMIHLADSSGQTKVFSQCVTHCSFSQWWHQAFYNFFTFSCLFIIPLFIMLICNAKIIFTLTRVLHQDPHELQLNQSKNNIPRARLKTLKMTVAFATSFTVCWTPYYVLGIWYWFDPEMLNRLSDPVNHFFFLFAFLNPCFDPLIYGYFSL

[3] = system: single combed White Leghorn hens; assay type: in vivo
Source text: as §2, §3, §4
After the forced molt group achieved a 30% body weight loss, i.e., after 10 days of fasting, six hens from each group were necropsied. The liver, abdominal adipose tissue (fat pad), ovary plus ova and oviduct weights were measured. The remaining forced molt hens received a limited quantity of feed for two days, and were then fed ad libitum. For all groups, body weight and feed consumption were measured weekly. The lighting regime was increased, at weekly intervals, from natural day length to 17 hour light: seven hour dark. For the forced molt and chemical molt groups, when the first egg was produced after the molt, body weights were measured and body weights taken for the 10 selected birds.

[4] = Week 1 = days zero-2, before treatment
[5] = Week 2 = days 6-8, before treatment
[6] = hens killed immediately after the molt, Day 23

For [D-Trp^6 ]LHRH [D-Trp^6 --LHRH], the “HEN-DAY EGG PRODUCTION Reported By Weeks” value ([1]; listed as Day 5) was 61.508%, the “HEN-DAY EGG PRODUCTION Reported By Weeks” value ([1]; listed as Day 12) was 26.984% and the “HEN-DAY EGG PRODUCTION Reported By Weeks” value ([1]; listed as Day 17) was 4.683%. For the same substance, the “HEN-DAY EGG PRODUCTION Reported By Weeks” value ([1]; listed as Day 22) was 7.619%, the “HEN-DAY EGG PRODUCTION Reported By Weeks” value ([1]; listed as Day 27) was 30.000% and the “HEN-DAY EGG PRODUCTION Reported By Weeks” value ([1]; listed as Day 33) was 58.095%. For the same substance, the “HEN-DAY EGG PRODUCTION Reported By Weeks” value ([1]; listed as Day 40) was 63.333%, the “HEN-DAY EGG PRODUCTION Reported By Weeks” value ([1]; listed as Day 47) was 67.143% and the “HEN-DAY EGG PRODUCTION Reported By Weeks” value ([1]; listed as Day 54) was 76.667%. The “HEN-DAY EGG PRODUCTION Reported By Weeks” value ([1]; listed as Day 61) was 80.000%, the “HEN-DAY EGG PRODUCTION Reported By Weeks” value ([1]; listed as Day 75) was 76.667% and the “HEN-DAY EGG PRODUCTION Reported By Weeks” value ([1]; listed as Day 82) was 73.889%. The “HEN-DAY EGG PRODUCTION Reported By Weeks” value ([1]; listed as Day Zero) was 63.889%, the “EGG SHELL WEIGHT” value [2, 4] was 5.46 g and the “EGG SPECIFIC GRAVITY” value [2, 4] was 1.079 (g/cm)^3. The “TOTAL EGG WEIGHT” value [2, 4] was 66.04 g, the “EGG SHELL WEIGHT” value [2, 5] was 5.82 g and the “EGG SPECIFIC GRAVITY” value [2, 5] was 1.082 (g/cm)^3. The “TOTAL EGG WEIGHT” value [2, 5] was 67.72 g, the “EGG SHELL WEIGHT” value ([2]; Week 3 = days 40-42) was 5.15 g and the “EGG SPECIFIC GRAVITY” value ([2]; Week 3 = days 40-42) was 1.075 (g/cm)^3. For the same substance, the “TOTAL EGG WEIGHT” value ([2]; Week 3 = days 40-42) was 64.38 g, the “EGG SHELL WEIGHT” value ([2]; Week 4 = days 47-49) was 5.61 g and the “EGG SPECIFIC GRAVITY” value ([2]; Week 4 = days 47-49) was 1.079 (g/cm)^3. The “TOTAL EGG WEIGHT” value ([2]; Week 4 = days 47-49) was 68.27 g, the “EGG SHELL WEIGHT” value ([2]; Week 5 = days 54-56) was 5.79 g and the “EGG SPECIFIC GRAVITY” value ([2]; Week 5 = days 54-56) was 1.079 (g/cm)^3. The “TOTAL EGG WEIGHT” value ([2]; Week 5 = days 54-56) was 68.81 g, the “EGG SHELL WEIGHT” value ([2]; Week 6 = days 61-63) was 5.65 g and the “EGG SPECIFIC GRAVITY” value ([2]; Week 6 = days 61-63) was 1.080 (g/cm)^3. For the same substance, the “TOTAL EGG WEIGHT” value ([2]; Week 6 = days 61-63) was 67.4 g, the “EGG SHELL WEIGHT” value ([2]; Week 7 = days 75-77) was 5.59 g and the “EGG SPECIFIC GRAVITY” value ([2]; Week 7 = days 75-77) was 1.079 (g/cm)^3. For the same substance, the “TOTAL EGG WEIGHT” value ([2]; Week 7 = days 75-77) was 67.19 g, the “quality of eggs produced after the molt” value ([2]; compared with conventional Forced Molted Group) was “as good in quality as the eggs produced by the conventional Forced Molted Group” and the duration of activity (LHRH receptor) was “prolonged activity”. The “involution of reproductive tract” value ([3]; both treated groups) was “exhibited involution of their reproductive tracts”, the “Ovary Wt.” value [3, 6] was 10.38 g and the “Oviduct Wt.” value [3, 6] was 17.65 g. The “Abdominal Adipose Tissue Wt.” value ([3]; in vivo) was 55.73 g and the “Body Wt.” value ([3]; in vivo) was 1.784 kg.
